Measured values reported in ChEMBL document CHEMBL1158106, “Penifulvins B-E and a silphinene analogue: sesquiterpenoids from a fungicolous isolate of Penicillium griseofulvum” (J Nat Prod, 2006).
Active and inactive are the calls of the source. The calls are words filed in the database; no cut-off is given here.

How the values were obtained:
Type in all cases: functional, organism-based
Aspergillus flavus = test: Antifungal activity against Aspergillus flavus NRRL 6541 at 100 ug/disk by agar disk diffusion assay
Bacillus subtilis = test: Antibacterial activity against Bacillus subtilis ATCC 6051 at 100 ug/disk by agar disk diffusion assay
Staphylococcus aureus = test: Antibacterial activity against Staphylococcus aureus ATCC 29213 at 100 ug/disk by agar disk diffusion assay
Candida albicans = test: Antifungal activity against Candida albicans ATCC 14053 at 100 ug/disk by agar disk diffusion assay
Spodoptera frugiperda = test: Insecticidal activity against Spodoptera frugiperda at 100 ug/disk

Structure (SMILES) | Activity (Aspergillus flavus) | Activity (Bacillus subtilis) | Activity (Staphylococcus aureus) | Activity (Candida albicans) | Activity (Spodoptera frugiperda)
C[C@@]1(CO)C[C@]2(C)CC=C[C@]23[C@H](C(=O)O)CC[C@@H]13 | inactive | inactive | inactive | inactive | inactive
CC1(C)C[C@]2(C)CC(=O)O[C@H]3OC(=O)[C@@H]4CC[C@@H]1[C@]342 | – | – | – | – | Active
C[C@@]1(CO)C[C@]2(C)CC(=O)O[C@H]3OC(=O)[C@@H]4CC[C@@H]1[C@]342 | inactive | inactive | inactive | inactive | inactive
